Where two headings read alike, the source gives them in different places.
Assays:
[1] = target: EGFR del19 T790M C797S protein in Ba/F3 cells (Homo sapiens, UniProt P00533, C797S/DEL746-750/T790M); assay: pEGFR assay (AlphaScreen Surefire, EGFR Tyr1068 phosphorylation); assay type: cell-based
Procedure, shortened: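 Transduced Ba/F3 cells, puromycin-selected and grown IL-3 independent, were treated with compound at 60.000 cells/well for 4 h at 37° C. Lysis followed for 20 min at room temperature, and Tyr1068 phospho-EGFR in lysate was detected after 2 h dark incubation. Results are IC50 values.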

[2] = target: EGFR (mutated) 695-1022, T790M, C797S, L858R (Homo sapiens (Human), UniProt P00533, C797S/L858R/T790M); assay: Biochemical EGFR inhibition assay (TR-FRET, poly-GT substrate), EGFR T790M C797S L858R
Procedure, shortened: (§1)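 Phosphorylation of tagged poly-GT substrate by EGFR forms measured at 5 μM and 100 μM ATP (final). Top compound concentration 100 μM, eleven fivefold dilutions, in duplicate. Results given as IC50.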

EGFR wt = EGFR wt (Homo sapiens (Human), UniProt P00533); assay: Biochemical EGFR inhibition assay (TR-FRET, poly-GT substrate), EGFR wt
Procedure, shortened: as §1

[3] = target: EGFR (d746-750 T790M C797S) (Homo sapiens (Human), UniProt P00533, C797S/DEL746-750/T790M); assay: Biochemical EGFR inhibition assay (TR-FRET, poly-GT substrate), EGFR d746-750 T790M C797S
Protocol: Biochemical EGFR Inhibition Assays
Initially, the inhibitory effect of compounds according to the invention is measured in biochemical assays which measure the phosphorylation activity of EGFR enzyme forms on poly-GT substrate in the presence of different concentrations of ATP (5 μM and 100 μM final assay concentration).
The following enzyme forms of EGFR are representative examples that can be used in these assays at the given concentrations:
For the chosen highest assay concentration of 100 μM, 150 nL of compound solution is transferred from a 10 mM DMSO compound stock solution. A series of eleven fivefold dilutions per compound is transferred to the assay plate, compound dilutions are tested in duplicates. DMSO is added as backfill to a total volume of 150 nL. The assay runs on a fully automated robotic system.
These biochemical EGFR enzyme form compound dose-response assays quantify the kinase activity via phosphorylation of a tagged poly-GT substrate. The results of the assay are provided as IC50 values.

[4] = tested on: Ba/F3 cells driven by EGFR mutants; assay: Ba/F3 proliferation assay (CellTiter-Glo viability), EGFR mutant alleles; assay type: cell-based, murine; settings: Mus musculus
Protocol: (§2) Ba/F3 Cell Model Generation and Proliferation Assays
(§3) Plasmids containing EGFR mutants were obtained from GeneScript. To generate EGFR-dependent […] were transduced with retroviruses containing vectors that harbor EGFR isoforms. Platinum-E cells (Cell Biolabs) were used for retrovirus packaging. Retrovirus was added to Ba/F3 cells. To ensure infection, 4 μg/mL polybrene was added and cells were spinfected. Infection efficiency was confirmed by measuring GFP-positive cells using a cell analyzer. Cells with an infection efficiency of 10% to 20% were further cultivated and puromycin selection with 1 μg/mL was initiated. As a control, parental Ba/F3 cells were used to show selection status. Selection was considered successful when parental Ba/F3 cells cultures died. To evaluate the transforming potential of EGFR mutations, the growth medium was no longer supplemented with IL-3. Ba/F3 cells harboring the empty vector were used as a control. A switch from IL-3 to EGF was performed for Ba/F3 cells with the wildtype EGFR known for its dependency on EGF ligand. Approximately ten days before conducting the experiments, puromycin was left out. For proliferation assays (data in table 13), Ba/F3 cells were seeded into 96-well plates at 5×10^3 cells/100 μL in growth media. Compounds were added by using a HP D3000 Digital Dispenser. All treatments were performed in technical triplicates. Treated cells were incubated for 72 h at 37° C. with 5% CO2. CellTiter-Glo® Luminescent Cell Viability Assay (Promega) was performed and chemoluminescence was measured by using the multilabel Plate Reader VICTOR X4. The raw data were imported into and analyzed with the Boehringer Ingelheim proprietary software MegaLab (curve fitting based on the program PRISM, GraphPad Inc.).

[5] = tested on: Ba/F3 cells with the wildtype EGFR; assay: Ba/F3 proliferation assay (CellTiter-Glo viability), wildtype EGFR with EGF; assay type: cell-based, murine; settings: Mus musculus, BaF3, Ba/F3 EGFR wt
Protocol: as §2, §3

[6] = tested on: Ba/F3 cells EGFR-indep. + IL-3; assay: Ba/F3 proliferation assay (CellTiter-Glo viability), EGFR-independent cells with IL-3; assay type: cell-based, murine; settings: Mus musculus, BaF3, Ba/F3 EGFR-independent + IL-3
Protocol: as §3

EGFR M+ NSCLC patients = settings: cited from earlier work; for objective response rate: EGFR M+ NSCLC patients treated in 1st line
[7] = tested on: EGFR M+ T790M-positive NSCLC patients; settings: 2nd line, cited from earlier work
[8] = read-out: LR_TM_CS (5 μM ATP) IC50, 5 μM ATP
[9] = read-out: LR_TM_CS (100 μM ATP) IC50, 100 μM ATP
[10] = read-out: wt (5 μM ATP) IC50, 5 μM ATP
[11] = read-out: wt (100 μM ATP) IC50, 100 μM ATP
[12] = BaF3, Ba/F3 EGFR L858R C797S, read-out: IC50 EGFR L858R C797S
[13] = BaF3, Ba/F3 EGFR L858R T790M C797S, read-out: IC50 EGFR L858R T790M C797S
[14] = BaF3, Ba/F3 EGFR L858R T790M, read-out: IC50 EGFR L858R T790M
[15] = BaF3, Ba/F3 EGFR L858R, read-out: IC50 EGFR L858R
[16] = BaF3, Ba/F3 EGFR del19, read-out: IC50 EGFR del19
[17] = BaF3, Ba/F3 EGFR del19 C797S, read-out: IC50 EGFR del19 C797S
[18] = BaF3, Ba/F3 EGFR del19 T790M C797S, read-out: IC50 EGFR del19 T790M C797S
[19] = BaF3, Ba/F3 EGFR del19 T790M, read-out: IC50 EGFR del19 T790M

Chain of EGFR (d746-750 T790M C797S) (P00533 other isoform, or with tags, fused parts or gaps T790M/C797S/del 1-694/del 746-750 limits assumed): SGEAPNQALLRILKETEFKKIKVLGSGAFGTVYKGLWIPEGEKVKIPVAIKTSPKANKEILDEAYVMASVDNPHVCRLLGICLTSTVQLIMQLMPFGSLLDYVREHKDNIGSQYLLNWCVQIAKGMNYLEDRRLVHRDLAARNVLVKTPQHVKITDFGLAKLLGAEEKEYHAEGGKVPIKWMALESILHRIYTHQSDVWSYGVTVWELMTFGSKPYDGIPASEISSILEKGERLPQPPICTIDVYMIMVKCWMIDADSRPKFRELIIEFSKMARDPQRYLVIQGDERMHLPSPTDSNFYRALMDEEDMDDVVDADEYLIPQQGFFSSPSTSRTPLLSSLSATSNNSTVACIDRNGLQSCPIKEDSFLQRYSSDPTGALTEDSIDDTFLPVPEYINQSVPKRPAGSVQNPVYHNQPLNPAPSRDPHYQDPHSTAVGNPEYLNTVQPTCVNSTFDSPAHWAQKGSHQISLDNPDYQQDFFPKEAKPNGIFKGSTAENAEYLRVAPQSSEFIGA
Chain of EGFR wt (P00533 25-1210): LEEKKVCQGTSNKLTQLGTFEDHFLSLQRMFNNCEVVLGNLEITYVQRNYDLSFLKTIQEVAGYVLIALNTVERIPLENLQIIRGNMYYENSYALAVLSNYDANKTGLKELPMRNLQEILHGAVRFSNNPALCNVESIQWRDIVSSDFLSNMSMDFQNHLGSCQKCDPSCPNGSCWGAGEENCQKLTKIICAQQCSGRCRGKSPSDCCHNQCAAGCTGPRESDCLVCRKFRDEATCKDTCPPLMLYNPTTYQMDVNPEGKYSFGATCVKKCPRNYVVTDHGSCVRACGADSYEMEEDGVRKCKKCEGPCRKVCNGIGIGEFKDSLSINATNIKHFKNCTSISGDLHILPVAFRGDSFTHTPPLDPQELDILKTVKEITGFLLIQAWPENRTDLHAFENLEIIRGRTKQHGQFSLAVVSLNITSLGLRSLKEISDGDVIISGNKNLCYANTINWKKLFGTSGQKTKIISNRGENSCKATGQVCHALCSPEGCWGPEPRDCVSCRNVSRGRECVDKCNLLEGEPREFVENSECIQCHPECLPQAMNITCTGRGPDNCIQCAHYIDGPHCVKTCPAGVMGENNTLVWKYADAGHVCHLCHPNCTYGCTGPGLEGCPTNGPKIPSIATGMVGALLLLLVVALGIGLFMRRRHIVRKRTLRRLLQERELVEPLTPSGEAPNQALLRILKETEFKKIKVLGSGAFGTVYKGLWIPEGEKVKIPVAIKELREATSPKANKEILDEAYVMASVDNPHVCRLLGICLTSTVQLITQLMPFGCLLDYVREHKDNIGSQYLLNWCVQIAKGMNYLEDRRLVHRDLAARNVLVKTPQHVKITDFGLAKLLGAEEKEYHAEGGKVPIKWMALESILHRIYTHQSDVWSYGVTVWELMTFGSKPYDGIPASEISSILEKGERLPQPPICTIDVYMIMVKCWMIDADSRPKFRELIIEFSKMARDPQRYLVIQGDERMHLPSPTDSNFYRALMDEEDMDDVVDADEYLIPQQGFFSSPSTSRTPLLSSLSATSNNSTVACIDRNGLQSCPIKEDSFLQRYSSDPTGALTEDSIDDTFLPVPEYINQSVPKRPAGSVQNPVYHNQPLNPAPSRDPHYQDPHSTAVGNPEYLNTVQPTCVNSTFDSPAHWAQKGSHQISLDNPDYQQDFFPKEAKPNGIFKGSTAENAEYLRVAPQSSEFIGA
Chain of EGFR (mutated) 695-1022, T790M, C797S, L858R (P00533 695-1022 T790M/C797S/L858R): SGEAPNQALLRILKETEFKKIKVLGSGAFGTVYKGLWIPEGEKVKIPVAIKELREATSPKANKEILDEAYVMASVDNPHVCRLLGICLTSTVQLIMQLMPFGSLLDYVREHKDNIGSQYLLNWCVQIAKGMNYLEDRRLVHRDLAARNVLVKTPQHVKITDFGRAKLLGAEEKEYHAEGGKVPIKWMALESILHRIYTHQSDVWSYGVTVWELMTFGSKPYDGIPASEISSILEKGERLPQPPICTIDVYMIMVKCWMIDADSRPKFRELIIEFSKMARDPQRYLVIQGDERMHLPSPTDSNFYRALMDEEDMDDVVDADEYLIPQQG
Chain of EGFR del19 T790M C797S protein in Ba/F3 cells (P00533 with tags, fused parts or gaps C797S/DEL746-750/T790M limits assumed): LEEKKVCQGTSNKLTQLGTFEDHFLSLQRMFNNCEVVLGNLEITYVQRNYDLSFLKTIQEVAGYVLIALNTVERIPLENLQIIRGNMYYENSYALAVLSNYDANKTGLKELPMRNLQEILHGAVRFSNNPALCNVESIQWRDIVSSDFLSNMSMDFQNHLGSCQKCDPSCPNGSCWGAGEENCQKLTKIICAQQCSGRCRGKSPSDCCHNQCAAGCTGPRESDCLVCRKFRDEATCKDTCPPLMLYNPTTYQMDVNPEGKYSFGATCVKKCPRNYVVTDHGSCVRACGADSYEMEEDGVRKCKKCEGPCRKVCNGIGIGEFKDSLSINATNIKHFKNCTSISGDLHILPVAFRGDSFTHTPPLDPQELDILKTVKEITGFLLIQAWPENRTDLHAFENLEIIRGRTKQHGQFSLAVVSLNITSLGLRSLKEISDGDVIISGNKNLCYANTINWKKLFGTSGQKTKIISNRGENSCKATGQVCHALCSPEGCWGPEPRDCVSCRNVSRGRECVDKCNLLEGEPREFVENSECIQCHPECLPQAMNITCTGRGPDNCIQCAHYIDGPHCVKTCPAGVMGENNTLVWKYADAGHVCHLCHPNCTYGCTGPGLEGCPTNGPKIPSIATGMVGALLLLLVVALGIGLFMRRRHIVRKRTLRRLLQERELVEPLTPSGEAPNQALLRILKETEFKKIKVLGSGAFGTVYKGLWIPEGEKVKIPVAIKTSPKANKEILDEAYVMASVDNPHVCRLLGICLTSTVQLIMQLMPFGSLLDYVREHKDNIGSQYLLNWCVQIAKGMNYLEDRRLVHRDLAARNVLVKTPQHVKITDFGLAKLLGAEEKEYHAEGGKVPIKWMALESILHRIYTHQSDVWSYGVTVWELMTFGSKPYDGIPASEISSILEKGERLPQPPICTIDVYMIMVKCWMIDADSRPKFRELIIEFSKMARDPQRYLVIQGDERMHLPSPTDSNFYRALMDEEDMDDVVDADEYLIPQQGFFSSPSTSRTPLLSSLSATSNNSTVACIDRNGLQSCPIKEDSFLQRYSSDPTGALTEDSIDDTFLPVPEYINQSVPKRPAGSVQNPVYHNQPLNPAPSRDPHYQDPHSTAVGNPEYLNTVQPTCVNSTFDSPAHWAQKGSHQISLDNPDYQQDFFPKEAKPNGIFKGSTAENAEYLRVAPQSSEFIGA

SMILES | IC50 [1] [nM] | IC50 [2, 8] [nM] | IC50 (EGFR wt; [10]) [nM] | IC50 [5] [nM] | IC50 ([3]; 5 μM ATP) [nM] | further results
Cn1cc(-c2cc(C(=O)/N=c3\[nH]c4ccccc4n3C3CCCCC3)ccn2)cn1 [I-015] | 9 | 0.8 | 125 | 2220 | – | IC50 [2, 9]: 10.5 nM; IC50 (EGFR wt; [11]): 114 nM; IC50 ([3]; 100 μM ATP): 2 nM; IC50 [4, 12]: 290 nM; IC50 [4, 13]: 284 nM; IC50 [4, 14]: 408 nM; IC50 [4, 15]: 274 nM; IC50 [4, 16]: 45.8 nM; IC50 [4, 17]: 21.1 nM; IC50 [4, 18]: 47 nM; IC50 [4, 19]: 169 nM; IC50 [6]: 6520 nM
Cn1cc(-c2cc(C(=O)/N=c3\[nH]c4ccccc4n3[C@H]3CC[C@@H](O)CC3)ccn2)cn1 [I-048] | 1 | 0.4 | 32.3 | 540 | – | IC50 [2, 9]: 5.7 nM; IC50 (EGFR wt; [11]): 1310 nM; IC50 [4, 12]: 52.1 nM; IC50 [4, 13]: 48.2 nM; IC50 [4, 14]: 79.4 nM; IC50 [4, 15]: 39.2 nM; IC50 [4, 16]: 10.9 nM; IC50 [4, 17]: 9.1 nM; IC50 [4, 18]: 12 nM; IC50 [4, 19]: 32.9 nM; IC50 [6]: 7940 nM
COc1ccccc1-c1cc(C(=O)/N=c2\[nH]c3cc(C)ccc3n2[C@H]2CC[C@@H](O)CC2)ccn1 [I-109] | 4 | 0.5 | 12.5 | 728 | – | IC50 [2, 9]: 8.8 nM; IC50 (EGFR wt; [11]): 549 nM; IC50 [4, 12]: 51.5 nM; IC50 [4, 13]: 146 nM; IC50 [4, 14]: 177 nM; IC50 [4, 15]: 38.3 nM; IC50 [4, 16]: 9.1 nM; IC50 [4, 17]: 7 nM; IC50 [4, 18]: 23.5 nM; IC50 [4, 19]: 52.9 nM; IC50 [6]: 8650 nM
Cn1cc(-c2cc(C(=O)/N=c3\[nH]c4ccccc4n3[C@H]3CC[C@@H](O)CC3)cc(C#N)n2)cn1 [I-136] | 2 | 0.8 | 164 | – | 0.2 | IC50 [2, 9]: 31.6 nM; IC50 (EGFR wt; [11]): > 100000 nM
Cn1cc(-c2cc(C(=O)/N=c3\[nH]c4ccccc4n3[C@H]3CCC[C@H](O)C3)ccn2)cn1 [I-137] | 2 | 0.8 | 108 | 2060 | – | IC50 [4, 12]: 100 nM; IC50 [4, 13]: 137 nM; IC50 [4, 14]: 178 nM; IC50 [4, 15]: 91.6 nM; IC50 [4, 16]: 16.6 nM; IC50 [4, 17]: 8.7 nM; IC50 [4, 18]: 20.7 nM; IC50 [4, 19]: 72 nM; IC50 [6]: 9060 nM
Cc1cc(C(=O)/N=c2\[nH]c3ccccc3n2[C@H]2CC[C@@H](O)CC2)cc(-c2cnn(C)c2)n1 [I-143] | 3 | 1.9 | 2180 | – | 0.4 | IC50 [2, 9]: 104 nM; IC50 (EGFR wt; [11]): > 100000 nM
CC(=O)N1CCC(c2ccc3c(c2)[nH]/c(=N\C(=O)c2ccnc(-c4cnn(C)c4)c2)n3[C@H]2CC[C@@H](O)CC2)CC1 [I-219] | 2 | 0.4 | 25.8 | – | 0.1 | –
Cn1cc(-c2cc(C(=O)/N=c3\[nH]c4ccccc4n3C3CCC[S+]([O-])C3)ccn2)cn1 (centres unmarked) [I-220] | 59 | 32.7 | 2860 | – | 2 | –
Cc1cc(C(=O)/N=c2\[nH]c3ccc(CN4CCOCC4)cc3n2C2CCCCC2)cc(-c2cnn(C)c2)n1 [I-221] | 5 | 2 | 2050 | – | 0.4 | –
Cc1cc(C(=O)/N=c2\[nH]c3ccc(CN4CCN(C)CC4)cc3n2[C@H]2CC[C@@H](O)CC2)cc(-c2cnn(C)c2)n1 [I-222] | 5 | 0.6 | 318 | – | 0.2 | –
Cc1cc(C(=O)/N=c2\[nH]c3ccc(CN4CCOCC4)cc3n2[C@H]2CC[C@@H](O)CC2)cc(-c2cnn(C)c2)n1 [I-223] | 4 | 1.8 | 2020 | – | 0.5 | –
Cc1cc(C(=O)/N=c2\[nH]c3ccc(CN4CCN(C)CC4)cc3n2C2CCCCC2)cc(-c2cnn(C)c2)n1 [I-224] | 3 | 0.5 | 267 | – | 0.2 | –
Cc1cc(C(=O)/N=c2\[nH]c3ccc(C4CCN(C)CC4)cc3n2[C@H]2CC[C@@H](O)CC2)cc(-c2cnn(C)c2)n1 [I-225] | 2 | 0.4 | 162 | – | 0.2 | –
COc1cc2ncnc(Nc3ccc(F)c(Cl)c3)c2cc1NC(=O)/C=C/CN1CCCCC1 [dacomitinib, reference compound] | – | – | – | 0.64 | – | –
C#Cc1cccc(Nc2ncnc3cc(OCCOC)c(OCCOC)cc23)c1 [erlotinib] | – | – | – | – | – | objective response rate (EGFR M+ NSCLC patients): 60-85%
Cc1cc(C(=O)Nc2nc3cccc(Cl)c3n2[C@@H]2CCCCN(C(=O)/C=C/CN(C)C)C2)ccn1 [nazartinib, reference compound] | – | – | – | 95.1 | – | IC50 [6]: > 5000 nM
C=CC(=O)Nc1cc(Nc2nccc(-c3cn(C)c4ccccc34)n2)c(OC)cc1N(C)CCN(C)C [osimertinib] | – | – | – | – | – | patients responding to treatment ([7]; previously treated with earlier generation EGFR TKI): Approximately 70%; average duration until disease progression [7]: 10 months; objective response rate (EGFR M+ NSCLC patients): 60-85%; average duration until disease progression (EGFR M+ NSCLC patients; previously untreated EGFR M+ NSCLC patients): 19 months
